# Results from PMC12040169 (PLOS Biology, 2025).
# Test: in vitro
# Conditions: human, hela cells, % viability
SMILES,"viability at 28.5 h, 10 µM [%]","viability at 28.5 h, 10 µM (bulk resorufin, single well) [%]"
O=[N+]([O-])c1ccc(N2CCN(S(=O)(=O)c3ccc4ccccc4c3)CC2)cc1 [CBK157773],93.6,
CN1CCN(CCCNC(=O)c2ccc(-c3ccc(C(=O)N(C)C)cc3)nc2)CC1 [CBK158343],95,
CC1CCN(Cc2ccc(-c3ccc(CC(=O)NCCc4ccc(O)cc4)cn3)cc2)CC1 [CBK158384],91.9,
CC1CCN(Cc2ccc(-c3ccc(CC(=O)NCc4ccc(C#N)cc4)cn3)cc2)CC1 [CBK158409],93.8,
O=C(c1ccc(-c2cncc(-c3cc4ccccc4[nH]3)c2)cc1)N1CCOCC1 [CBK158419T],76.1,
Nc1ncc(-c2ccc(C(=O)N3CCOCC3)cc2)cc1C(=O)NCc1c(F)cccc1F [CBK158569],80.6,
CN(C)CC(C)(C)CNC(=O)c1cc(-c2ccc(C(=O)N3CCOCC3)cc2)cnc1N [CBK158574],80.2,
Nc1ncc(-c2ccc(C(=O)N3CCOCC3)cc2)cc1C(=O)NCCc1ccc(O)cc1 [CBK158577],92.5,
CN1CCN(C(=O)c2cc(-c3ccc(C(=O)N4CCOCC4)cc3)cnc2N)CC1 [CBK158584],85.6,
Nc1ncc(-c2ccc(C(=O)N3CCOCC3)cc2)cc1C(=O)NCc1ccc(S(N)(=O)=O)cc1 [CBK158597],105,
CS(=O)(=O)c1ccc(CNC(=O)c2cc(-c3ccc(C(=O)N4CCOCC4)cc3)cnc2N)cc1 [CBK158599],93,
CSCCCNC(=O)c1cncc(-c2ccc(C(=O)N3CCOCC3)cc2)c1 [CBK158610],92.7,
O=C(NCc1ccc(Cl)c(Cl)c1)c1cncc(-c2ccc(C(=O)N3CCOCC3)cc2)c1 [CBK158612],98.2,
O=C(NCc1ccc2c(c1)OCO2)c1cncc(-c2ccc(C(=O)N3CCOCC3)cc2)c1 [CBK158614],108,
O=C(NCCc1ccc(O)cc1)c1cncc(-c2ccc(C(=O)N3CCOCC3)cc2)c1 [CBK158620],112,
COc1cc(CNC(=O)c2cncc(-c3ccc(C(=O)N4CCOCC4)cc3)c2)cc(OC)c1OC [CBK158632],114,
CCOC(=O)CCNC(=O)c1cncc(-c2ccc(C(=O)N3CCOCC3)cc2)c1 [CBK158645],92.6,
CCCC1CCN(CC2C=Cc3cc(-c4ccc(S(C)(=O)=O)cc4)ccc3O2)CC1 (centres unmarked) [CBK158647],86.2,
CCc1ccc(CNC(=O)Cn2cnc(-c3ccc(CN4CCC(C)CC4)cc3)c2)cc1 [CBK158710T],100,
Cc1onc(-c2ccccc2)c1C(=O)N1CCC(C(N)=O)CC1 [CBK158721],84.4,
CCN(CC)C(=O)CN(CCc1ccc(OC)c(OC)c1)C(=O)NCCN1CCOCC1 [CBK158734],93.1,
CCN(CC)C(=O)CN(CCc1ccc(OC)c(OC)c1)C(=O)NCc1ccc(Cl)cc1 [CBK158742],110,

SMILES,"viability at 28.5 h, 10 µM [%]","viability at 28.5 h, 10 µM (bulk resorufin, single well) [%]"
COc1ccc(CCN(Cc2ccc(Cl)c(Cl)c2)C(=O)Nc2cccnc2)cc1OC [CBK158797],96.1,
CCN(CC)CCN(C(=O)NCCCSC)C(C)c1ccc(OC)c(OC)c1 (centres unmarked) [CBK158803],94.3,
CC(=O)Nc1ccc(-c2ccc(C(=O)NCc3cccnc3)cn2)cc1 [CBK158842],96.9,
CCN(CC)C(=O)c1ccc(-c2ccc(NC(C)=O)cc2)nc1 [CBK158850],101,
COc1cc(CNC(=O)c2ccc(-c3ccc(NC(C)=O)cc3)nc2)cc(OC)c1OC [CBK158851],100,
CC(=O)Nc1ccc(-c2ccc(C(=O)NC3CC3)cn2)cc1 [CBK158854],84.9,
CC(=O)Nc1ccc(-c2ccc(C(=O)NCc3ccc(C(C)C)cc3)cn2)cc1 [CBK158857],101,
CC(=O)Nc1ccc(-c2ccc(C(=O)NCc3ccc(S(C)(=O)=O)cc3)cn2)cc1 [CBK158860],92.1,
CCOC(=O)N1CCC(NC(=O)N(Cc2cccnc2)Cc2ccc3c(c2)OCO3)CC1 [CBK158897],95.4,
CSCCCNC(=O)N1CCN(CCc2ccccc2)CC1 [CBK158900],81.6,
O=C(NCCN1CCOCC1)N1CCN(CCc2ccccc2)CC1 [CBK158908],85.5,
COc1cc(CNC(=O)N2CCN(CCc3ccccc3)CC2)cc(OC)c1OC [CBK158910],91.8,
NC(=O)c1ccc(NC(=O)N2CCN(CCc3ccccc3)CC2)cc1 [CBK158924],95.3,
COc1cc(NC(=O)N2CCN(CCc3ccccc3)CC2)cc(OC)c1OC [CBK158933],100,
O=C(NC1CCc2ccccc21)N1CCN(CCc2ccccc2)CC1 (centres unmarked) [CBK158936],96.1,
CCOC(=O)N1CCC(NC(=O)N2CCN(CCc3ccccc3)CC2)CC1 [CBK158938],89.8,
CCN(CC)CCN(C(=O)NCCc1c[nH]c2ccc(OC)cc12)C(C)c1ccc(OC)c(OC)c1 (centres unmarked) [CBK158948],90.4,
COc1ccc(C(C)N(CCN2CCOCC2)C(=O)NCc2cccc3ccccc23)cc1OC (centres unmarked) [CBK158984],96.4,
CCN(CC)CCN(Cc1ccc2c(c1)OCO2)C(=O)Nc1ccc2[nH]ccc2c1 [CBK159037],96.7,
COc1ccc(CN(CCCN2CCOCC2)C(=O)NCc2ccc(C#N)cc2)cc1OC [CBK159125],89,
CCN(CC)c1ccc(NC(=O)N(CCCN2CCOCC2)Cc2ccc(OC)c(OC)c2)cc1 [CBK159168],91.1,
COc1ccc(CN(CCN(C)C)C(=O)NCc2ccc(Cl)cc2)cc1OC [CBK159303],87.7,

SMILES,"viability at 28.5 h, 10 µM [%]","viability at 28.5 h, 10 µM (bulk resorufin, single well) [%]"
CCN(CC)c1ccc(CN(CCCN(C)C)C(=O)NCC2CCCCC2)cc1 [CBK159392],106,
O=C(NCc1ccc(Cl)cc1)N(Cc1cccnc1)Cc1ccc2c(c1)OCO2 [CBK159449],97,
O=C(NCc1c(Cl)cccc1Cl)N(Cc1cccnc1)Cc1ccc2c(c1)OCO2 [CBK159450],96.8,
COc1ccc(CNC(=O)N(Cc2cccnc2)Cc2ccc3c(c2)OCO3)cc1OC [CBK159456],87.3,
COc1ccc(-c2csc(CC(=O)O)n2)cc1 [CBK159469],85.4,
COc1cc(C)ccc1S(=O)(=O)Nc1cccc2cc[nH]c12 [CBK159511],81.8,
O=S(=O)(Nc1cccc2cc[nH]c12)c1ccc(Br)cc1C(F)(F)F [CBK159519],88.5,
CS(=O)(=O)Nc1ccc2c(ccn2Cc2ccccc2)c1 [CBK159527],104,
O=S(=O)(Nc1ccc2c(ccn2Cc2ccccc2)c1)c1cc(C(F)(F)F)cc(C(F)(F)F)c1 [CBK159540],94.7,
Cn1cnc(S(=O)(=O)Nc2cccc3cc[nH]c23)c1 [CBK159554],94,
CCc1c(C)nc2c(NC(C)=O)cccc2c1SCCC(=O)O [CBK159594T],106,
CC(C)(C)OC(=O)N1CCC2(CC1)OCc1cc(-c3ccc(S(C)(=O)=O)nc3)ccc1O2 [CBK159619],,83.6
O=C(Nc1ccc2[nH]ccc2c1)c1ccc(Cl)cc1 [CBK159668],98.4,
O=C(Nc1ccc2[nH]ccc2c1)c1ccc(Br)cc1Cl [CBK159679],106,
O=C(Cc1cc(F)c(F)c(F)c1)Nc1ccc2[nH]ccc2c1 [CBK159684],91.7,
O=C(COc1ccc(F)cc1)Nc1ccc2[nH]ccc2c1 [CBK159689],98.6,
CN(C)CCCC(=O)Nc1ccc2[nH]ccc2c1 [CBK159698],114,
CN1CCC[C@H]1C(=O)Nc1ccc2[nH]ccc2c1 [CBK159699],97.6,
O=C(Cc1ccc(Cl)c(Cl)c1)NCCc1c[nH]c2ccc(Cl)cc12 [CBK159749],100,
O=C(NCCc1c[nH]c2ccc(Cl)cc12)c1ccc(Cl)cc1Cl [CBK159750],105,
O=C(Cc1cc(Cl)ccc1C(F)(F)F)NCCc1c[nH]c2ccc(Cl)cc12 [CBK159759],80.2,
O=C(NCCc1c[nH]c2ccc(Cl)cc12)c1ccc(Br)cc1Cl [CBK159762],89.1,

SMILES,"viability at 28.5 h, 10 µM [%]","viability at 28.5 h, 10 µM (bulk resorufin, single well) [%]"
O=C(Cc1cc(F)c(F)c(F)c1)NCCc1c[nH]c2ccc(Cl)cc12 [CBK159768],112,
NS(=O)(=O)c1ccc(C(=O)NCCc2c[nH]c3ccc(Cl)cc23)cc1 [CBK159780],95.2,
O=C(NCCc1c[nH]c2ccc(Cl)cc12)c1ccoc1 [CBK159782],97.9,
O=C(Cc1ccc(Cl)cc1Cl)Nc1ccc2ncccc2c1 [CBK159787],91.5,
O=C(Nc1ccc2ncccc2c1)c1ccc(Cl)cc1Cl [CBK159793],96.5,
O=C(Cc1cc(Cl)ccc1C(F)(F)F)Nc1ccc2ncccc2c1 [CBK159802],94.7,
O=C(Cc1cc(F)c(F)c(F)c1)Nc1ccc2ncccc2c1 [CBK159811],93,
Cc1cc(Br)ccc1C(=O)Nc1ccc2ncccc2c1 [CBK159814],92.1,
O=C(Nc1ccc2ncccc2c1)c1ccc(OC(F)(F)F)cc1 [CBK159815],90.9,
O=C(COc1ccc(F)cc1)Nc1ccc2ncccc2c1 [CBK159816],85.7,
CSCCC(=O)Nc1ccc2ncccc2c1 [CBK159818],87.2,
O=C(Nc1ccc2ncccc2c1)c1cccnc1 [CBK159820],94.1,
CN(C)CCCC(=O)Nc1ccc2ncccc2c1 [CBK159824],83.4,
O=C(Nc1cccc(C(F)(F)F)c1)c1c(O)c2ccccc2[nH]c1=O [CBK159985],93.2,
CC(C)c1c(O)c2ccccc2[nH]c1=O [CBK159988],89.4,
Cc1ccc2c(O)c(C(=O)NCc3cccs3)cnc2c1 [CBK159997],78.2,
O=C(Cc1c[nH]cn1)Nc1ccc2cc[nH]c2c1 [CBK160059],95.1,
O=C(Nc1cccc2cc[nH]c12)c1cc(F)cc(Cl)c1 [CBK160075],88.8,
O=C(Nc1cccc2cc[nH]c12)c1cc(F)c(Cl)cc1F [CBK160080],82.4,
O=C(Cc1c[nH]cn1)Nc1cccc2cc[nH]c12 [CBK160097],86.2,
